Data published in ChEMBL document CHEMBL1137913, “Piperidine-containing beta-arylpropionic acids as potent antagonists of alphavbeta3/alphavbeta5 integrins” (Bioorg Med Chem Lett, 2004).

Experiments:
[1] = target: T1, Integrin alpha-IIb/beta-3 (Homo sapiens, UniProt P05106+P08514); experiment: Inhibition of human Biotinylated Fg binding to immobilized Alpha II beta-3; format: protein-complex assay
[2] = Clearance was determined after intravenous administration at 2 mg/kg; format: ADME, organism-based; design: dose 2 mg/kg, route intravenous; conditions: rat, in vivo
[3] = Oral bioavailability (dose in 5% dextrose in water at pH 2); format: ADME, organism-based; conditions: rat, in vivo
[4] = AUC was determined after peroral administration at 10 mg/kg; format: ADME, organism-based; design: dose 10 mg/kg, route oral; conditions: rat, plasma, po
[5] = Half life was determined after peroral administration at 10 mg/kg; format: ADME, organism-based; design: dose 10 mg/kg, route oral; conditions: rat, in vivo, po
[6] = Inhibition of human Biotinylated Fg binding to immobilized Alpha II biotinylated Fg beta-5
Integrin alpha-V/beta-3 = Integrin alpha-V/beta-3 (Homo sapiens, UniProt P05106+P06756); experiment: Inhibition of human vitronectin binding to immobilized Alpha v beta-3; format: protein-complex assay
[7] = target: T1, Integrin alpha-IIb/beta-3; experiment: Inhibition of human Biotinylated Fg binding to immobilized Alpha IIb beta-3 (N=1); format: protein-complex assay

T1 sequence (P05106 27-788 limits assumed): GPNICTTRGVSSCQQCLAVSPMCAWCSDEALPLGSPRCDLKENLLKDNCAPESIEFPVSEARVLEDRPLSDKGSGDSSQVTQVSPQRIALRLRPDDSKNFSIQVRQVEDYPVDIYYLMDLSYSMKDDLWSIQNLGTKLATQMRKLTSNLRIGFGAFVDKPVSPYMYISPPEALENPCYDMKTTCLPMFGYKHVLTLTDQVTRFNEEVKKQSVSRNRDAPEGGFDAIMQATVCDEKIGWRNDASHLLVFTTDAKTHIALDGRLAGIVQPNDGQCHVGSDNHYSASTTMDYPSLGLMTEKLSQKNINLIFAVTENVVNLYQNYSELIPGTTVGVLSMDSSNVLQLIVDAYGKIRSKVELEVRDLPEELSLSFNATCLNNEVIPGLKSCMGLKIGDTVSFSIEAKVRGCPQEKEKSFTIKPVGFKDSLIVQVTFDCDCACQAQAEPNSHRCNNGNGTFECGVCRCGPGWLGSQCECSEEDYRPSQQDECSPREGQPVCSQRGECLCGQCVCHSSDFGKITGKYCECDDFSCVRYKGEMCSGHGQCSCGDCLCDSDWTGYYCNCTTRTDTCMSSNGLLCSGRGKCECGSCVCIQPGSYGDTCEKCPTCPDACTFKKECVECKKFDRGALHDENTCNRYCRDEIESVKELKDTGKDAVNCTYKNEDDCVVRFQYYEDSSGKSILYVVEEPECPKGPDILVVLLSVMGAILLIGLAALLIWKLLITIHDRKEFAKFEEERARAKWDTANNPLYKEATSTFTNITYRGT
T1 sequence (P08514 32-887 limits assumed): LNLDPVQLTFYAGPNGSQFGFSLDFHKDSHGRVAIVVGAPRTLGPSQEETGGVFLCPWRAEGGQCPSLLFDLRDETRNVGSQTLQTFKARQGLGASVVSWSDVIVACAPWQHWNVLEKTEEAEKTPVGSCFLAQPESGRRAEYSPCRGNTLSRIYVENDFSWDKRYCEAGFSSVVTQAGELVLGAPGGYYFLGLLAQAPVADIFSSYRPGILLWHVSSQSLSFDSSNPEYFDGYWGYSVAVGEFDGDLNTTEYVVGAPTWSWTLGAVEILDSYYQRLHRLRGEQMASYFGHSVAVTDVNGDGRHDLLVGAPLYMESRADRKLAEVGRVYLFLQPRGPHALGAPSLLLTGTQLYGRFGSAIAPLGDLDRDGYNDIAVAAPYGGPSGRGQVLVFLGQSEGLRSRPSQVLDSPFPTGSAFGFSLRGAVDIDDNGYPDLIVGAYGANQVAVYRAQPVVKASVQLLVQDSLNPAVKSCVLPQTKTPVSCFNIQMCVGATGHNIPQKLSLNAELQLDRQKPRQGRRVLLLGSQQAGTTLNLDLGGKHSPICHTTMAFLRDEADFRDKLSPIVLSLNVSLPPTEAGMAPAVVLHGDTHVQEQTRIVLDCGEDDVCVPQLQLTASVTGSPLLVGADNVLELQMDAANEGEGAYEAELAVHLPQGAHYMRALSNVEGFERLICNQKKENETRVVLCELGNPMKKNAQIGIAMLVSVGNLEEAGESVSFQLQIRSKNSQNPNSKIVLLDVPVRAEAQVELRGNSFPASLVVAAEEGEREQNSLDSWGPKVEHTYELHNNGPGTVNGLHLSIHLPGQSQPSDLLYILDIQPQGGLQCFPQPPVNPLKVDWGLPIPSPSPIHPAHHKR
T1 sequence (P08514 891-1039 limits assumed): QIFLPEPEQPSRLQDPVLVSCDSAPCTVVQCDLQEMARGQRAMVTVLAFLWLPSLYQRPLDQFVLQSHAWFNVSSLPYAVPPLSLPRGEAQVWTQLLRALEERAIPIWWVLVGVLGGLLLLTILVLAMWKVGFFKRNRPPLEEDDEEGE
Integrin alpha-V/beta-3, sequence (P05106 27-788 limits assumed): as the sequence (P05106 27-788 limits assumed) above
Integrin alpha-V/beta-3, sequence (P06756 31-889 limits assumed): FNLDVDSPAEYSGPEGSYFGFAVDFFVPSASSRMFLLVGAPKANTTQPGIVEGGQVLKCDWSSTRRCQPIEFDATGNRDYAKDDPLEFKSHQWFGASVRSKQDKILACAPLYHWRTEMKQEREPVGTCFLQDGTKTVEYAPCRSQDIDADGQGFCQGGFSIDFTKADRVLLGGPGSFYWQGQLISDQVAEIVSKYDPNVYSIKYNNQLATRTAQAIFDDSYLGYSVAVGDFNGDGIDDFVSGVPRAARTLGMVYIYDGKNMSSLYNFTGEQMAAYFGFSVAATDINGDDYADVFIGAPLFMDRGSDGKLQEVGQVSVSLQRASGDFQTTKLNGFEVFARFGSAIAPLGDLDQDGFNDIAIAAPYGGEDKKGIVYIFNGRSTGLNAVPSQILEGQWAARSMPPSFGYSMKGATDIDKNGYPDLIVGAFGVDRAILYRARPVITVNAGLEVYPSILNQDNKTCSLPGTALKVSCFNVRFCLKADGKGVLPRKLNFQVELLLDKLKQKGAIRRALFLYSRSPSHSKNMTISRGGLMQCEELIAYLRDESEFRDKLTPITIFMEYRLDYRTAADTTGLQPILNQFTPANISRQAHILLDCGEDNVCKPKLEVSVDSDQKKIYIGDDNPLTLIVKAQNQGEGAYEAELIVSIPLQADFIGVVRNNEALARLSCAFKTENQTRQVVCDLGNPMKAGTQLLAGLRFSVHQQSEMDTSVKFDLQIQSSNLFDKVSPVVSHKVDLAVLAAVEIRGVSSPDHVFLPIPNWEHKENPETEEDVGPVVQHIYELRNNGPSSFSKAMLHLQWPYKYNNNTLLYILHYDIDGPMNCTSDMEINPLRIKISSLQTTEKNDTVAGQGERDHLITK
Integrin alpha-V/beta-3, sequence (P06756 891-1048 limits assumed): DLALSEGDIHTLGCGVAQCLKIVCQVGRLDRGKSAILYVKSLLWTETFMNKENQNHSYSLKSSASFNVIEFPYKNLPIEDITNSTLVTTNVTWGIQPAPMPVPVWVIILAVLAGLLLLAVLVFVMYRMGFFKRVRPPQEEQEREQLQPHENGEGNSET

Row | Structure (SMILES) | IC50 [1] [nM] | CI [2] [mg/kg/µM/h] | bioavailability [3] [%] | AUC [4] [µM·h] | half-life [5] [h] | IC50 [6] [nM] | IC50 (Integrin alpha-V/beta-3) [nM] | IC50 [7] [nM]
1 | COc1ncc(C(CC(=O)O)CC2CCN(C(=O)CCc3ccc4c(n3)NCCC4)CC2)c(OC)n1 (stereo unspecified) |  | 1 | 1 | 0.1 |  | 4.6 | 1.5 | 
2 | Cc1ncc(C(CC(=O)O)CC2CCN(C(=O)CCc3ccc4c(n3)NCCC4)CC2)cn1 (stereo unspecified) |  | 10.4 | 4 | < 0.1 | 2.6 |  |  | 
3 | O=C(O)CC(CC1CCN(C(=O)CCc2ccc3c(n2)NCCC3)CC1)c1cccnc1 (stereo unspecified) |  | 1.1 | 0 |  |  | 1.7 |  | 
4 | O=C(O)CC(CCC1CCN(C(=O)Cc2ccc3c(n2)NCCC3)CC1)c1ccc2c(c1)OCO2 (stereo unspecified) | > 10000 |  |  |  |  | 405 | 75 | 
5 | O=C(O)CC(c1ccc2c(c1)OCO2)C1CCN(C(=O)CCCc2ccc3c(n2)NCCC3)CC1 (stereo unspecified) |  |  |  |  |  | 33.5 |  | 
6 | O=C(O)CC(c1ccc2c(c1)OCO2)C1CCN(C(=O)Cc2ccc3c(n2)NCCC3)CC1 (stereo unspecified) |  |  |  |  |  | 775 |  | > 10000
7 | O=C(O)CC(NC(=O)C1CCN(C(=O)CCc2ccc3c(n2)NCCC3)CC1)c1ccc2c(c1)OCO2 (stereo unspecified) | 15700 | 0.09 | 2.4 | 79 | 6.7 |  | 21.7 | 
8 | O=C(O)CC(CC1CCN(C(=O)CCc2ccc3c(n2)NCCC3)CC1)c1cccc(F)c1 (stereo unspecified) | > 10000 | 0.5 | 14 | 2.7 | 1.7 | 2.8 |  | 
9 | O=C(O)CC(CC1CCN(C(=O)CCc2ccc3c(n2)NCCC3)CC1)c1ccc2ccccc2c1 (stereo unspecified) | > 10000 | 0.02 | 47 | 286 | 5.65 | 24.5 |  | 
10 | O=C(O)CC(CCC1CCN(C(=O)CCCNc2ccccn2)CC1)c1ccc2c(c1)OCO2 (stereo unspecified) | 10900 | 0.2 | 96 | 142 | 6.6 |  | 233 | 
11 | O=C(O)CC(CC1CCN(C(=O)CCc2ccc3c(n2)NCCC3)CC1)c1ccc2c(c1)OCO2 (stereo unspecified) |  | 0.1 | 31 | 97 | 2.1 | 2.3 |  | 

Further compounds by falling IC50 [1], results first:

Row | IC50 [1] [nM] | CI [2] [mg/kg/µM/h] | bioavailability [3] [%] | AUC [4] [µM·h] | half-life [5] [h] | IC50 [6] [nM] | IC50 (Integrin alpha-V/beta-3) [nM] | IC50 [7] [nM] | Structure (SMILES)
12 | 6190 |  |  |  |  | 95.7 | 28.1 |  | O=C(O)CC(c1ccc2c(c1)OCO2)C1CCN(C(=O)CCc2ccc3c(n2)NCCC3)CC1 (stereo unspecified)
13 | 4360 | 0.09 | 88 | 304 | 3 |  |  |  | O=C(O)CC(CCC1CCN(C(=O)CCc2ccc3c(n2)NCCC3)CC1)c1ccc2c(c1)OCO2 (stereo unspecified)
14 | 4260 |  |  |  |  | 220 | 20.6 |  | O=C(O)CC(CC1CCN(C(=O)CCCc2ccc3c(n2)NCCC3)CC1)c1ccc2c(c1)OCO2 (stereo unspecified)
15 | 2850 |  |  |  |  |  | 2.6 |  | O=C(O)CC(NC(=O)C1CCN(C(=O)CCc2ccc3c(n2)NCCC3)CC1)c1cnc2ccccc2c1 (stereo unspecified)
16 | 1580 | 0.04 | 2.6 | 21.2 | 5.4 |  | 1.7 |  | O=C(O)CC(CCC1CCN(C(=O)c2cccc(NC3=NCC(O)CN3)c2)CC1)c1ccc2c(c1)OCO2 (stereo unspecified)
17 | 209 |  |  |  |  |  | 10.4 |  | O=C(O)CC(NC(=O)C1CCN(C(=O)c2cccc(NC3=CCCCN3)c2)CC1)c1ccc2c(c1)OCO2 (stereo unspecified)
18 | 177 |  |  |  |  |  | 5.5 |  | O=C(O)CC(NC(=O)C1CCN(C(=O)c2cccc(NC3=CCC(O)CN3)c2)CC1)c1cnc2ccccc2c1 (stereo unspecified)
19 | 79.3 |  |  |  |  |  | 2.8 |  | O=C(O)CC(NC(=O)C1CCN(C(=O)CCCNC2=NCCN2)CC1)c1cnc2ccccc2c1 (stereo unspecified)
20 | 56.4 |  |  |  |  |  | 25.3 |  | N/C(=N\Cc1ccncc1)Nc1cccc(C(=O)N2CCC(C(=O)NC(CC(=O)O)c3ccc4c(c3)OCO4)CC2)c1 (stereo unspecified)
21 | 0.15 |  |  |  |  |  | > 50000 |  | O=C(O)C[C@H](NC(=O)[C@@H]1CCCN(C(=O)CCC2CCNCC2)C1)c1cccnc1 [ELAROFIBAN]
